The source of these data is BindingDB's records for doi:10.1021/jm980537b (Agouron Pharmaceuticals, 1999).

Broadly, the EC50 is the concentration at which the effect is half-maximal.

Each structure is given as a SMILES string.

A short description of assay [1]: Increased percentage of formazan production in drug treated virus infected cells to equal 50% of control drug free uninfected cells on serotype 14.
Assay [2] can be described thus: The EC50 was calculated as the concentration of drug that increased the percentage of formazan production in drug treated, virus infected cells to 50% of that produced by drug free uninfected cells on serotype 1A.
Assay [3] in a line: The EC50 was calculated as the concentration of drug that increased the percentage of formazan production in drug treated, virus infected cells to 50% of that produced by drug free uninfected cells on serotype 2.
Assay [4] is described as follows: The EC50 was calculated as the concentration of drug that increased the percentage of formazan production in drug treated,virus infected cells to 50% of that produced by drug free uninfected cells on serotype 10.
Assay [5] is described as follows: The EC50 was calculated as the concentration of drug that increased the percentage of formazan production in drug treated, virus infected cells to 50% of that produced by drug free uninfected cells on serotype 1A. The source holds these as a separate data set.

Take `CCOC(=O)/C=C/[C@H](CCC(N)=O)NC(=O)[C@@H](CC(=O)[C@H](CC(C)C)NC(=O)OCc1ccccc1)Cc1ccccc1` [(E)-(S)-4-((2R,5S)-2-Benzyl-5-benzyloxycarbonylamino-7-methyl-4-oxo-octanoylamino)-6-carbamoyl-hex-2-enoic acid ethyl ester]: the concentration for a half-maximal effect (EC50) in assay [1] was 360 nM.
`CCOC(=O)/C=C/[C@H](CCC(N)=O)NC(=O)[C@@H](CC(=O)[C@@H](NC(=O)SCc1ccccc1)C(C)C)Cc1ccccc1` [(E)-(S)-4-((2R,5S)-2-Benzyl-5-benzylsulfanylcarbonylamino-6-methyl-4-oxo-heptanoylamino)-6-carbamoyl-hex-2-enoic acid ethyl ester] displayed a concentration giving a half-maximal response (EC50) in assay [1] of 190 nM.
In turn, `CCOC(=O)/C=C/[C@H](CCC(N)=O)NC(=O)[C@@H](CC(=O)[C@H](CC(C)C)NC(=O)SCc1ccccc1)Cc1ccccc1` [(E)-(S)-4-((2R,5S)-2-Benzyl-5-benzylsulfanylcarbonylamino-7-methyl-4-oxo-octanoylamino)-6-carbamoyl-hex-2-enoic acid ethyl ester] showed an EC50 in assay [1] of 680 nM.
Regarding `CCOC(=O)/C=C/[C@H](CCC(N)=O)NC(=O)[C@@H](CC(=O)[C@@H](NC(=O)SC1CCCC1)C(C)(C)C)Cc1ccccc1` [(E)-(S)-4-((2R,5S)-2-Benzyl-5-cyclopentylsulfanylcarbonylamino-6,6-dimethyl-4-oxo-heptanoylamino)-6-carbamoyl-hex-2-enoic acid ethyl ester], the results for the concentration for a half-maximal effect (EC50) in assay [2] and in assay [1] were 430 nM and 50 nM, respectively.
As to `CCOC(=O)/C=C/[C@H](CCC(N)=O)NC(=O)[C@@H](CC(=O)[C@@H](NC(=O)SC1CCCC1)C(C)C)Cc1ccccc1` [(E)-(S)-4-((2R,5S)-2-Benzyl-5-cyclopentylsulfanylcarbonylamino-6-methyl-4-oxo-heptanoylamino)-6-carbamoyl-hex-2-enoic acid ethyl ester], the concentration giving a half-maximal response (EC50) in assay [1] is 20 nM; in assay [3], 100 nM; in assay [4], 35 nM.
The molecule `CCOC(=O)/C=C/[C@H](CCC(N)=O)NC(=O)[C@@H](CC(=O)[C@H](CC(C)C)NC(=O)SC1CCCC1)Cc1ccccc1` [(E)-(S)-4-((2R,5S)-2-Benzyl-5-cyclopentylsulfanylcarbonylamino-7-methyl-4-oxo-octanoylamino)-6-carbamoyl-hex-2-enoic acid ethyl ester] showed a concentration for a half-maximal effect (EC50) in assay [1] of 190 nM.
Turning to `CCOC(=O)/C=C/[C@H](CCC(N)=O)NC(=O)[C@@H](CC(=O)[C@@H](NC(=O)SC1CCCC1)C(C)C)Cc1ccc(F)cc1` [(E)-(S)-6-Carbamoyl-4-[(2R,5S)-5-cyclopentylsulfanylcarbonylamino-2-(4-fluoro-benzyl)-6-methyl-4-oxo-heptanoylamino]-hex-2-enoic acid ethyl ester], the EC50 in assay [2] was 170 nM; in assay [1], 20 nM.
As to `CCOC(=O)/C=C/[C@H](CCC(N)=O)NC(=O)[C@@H](CC(=O)[C@H](CC(C)C)NC(=O)SC1CCCC1)Cc1ccc(F)cc1` [(E)-(S)-6-Carbamoyl-4-[(2R,5S)-5-cyclopentylsulfanylcarbonylamino-2-(4-fluoro-benzyl)-7-methyl-4-oxo-octanoylamino]-hex-2-enoic acid ethyl ester], the EC50 is 600 nM in assay [2], 280 nM in assay [1], 710 nM in assay [3] and 1600 nM in assay [4].
For the molecule `CCOC(=O)/C=C/[C@H](CCC(N)=O)NC(=O)[C@@H](CC(=O)[C@@H](NC(=O)SC1CCCC1)C(C)C)Cc1ccc(C)cc1` [(E)-(S)-6-Carbamoyl-4-[(2R,5S)-5-cyclopentylsulfanylcarbonylamino-6-methyl-2-(4-methyl-benzyl)-4-oxo-heptanoylamino]-hex-2-enoic acid ethyl ester], the EC50 in assay [2] is 160 nM; in assay [1] it was 6 nM; in assay [3], 130 nM; in assay [4], 60 nM.
`CCOC(=O)/C=C/[C@H](CCC(N)=O)NC(=O)[C@@H](CC(=O)[C@@H](NC(=O)SC1CCCC1)C(C)C)Cc1ccc(C(F)(F)F)cc1` [(E)-(S)-6-Carbamoyl-4-[(2R,5S)-5-cyclopentylsulfanylcarbonylamino-6-methyl-4-oxo-2-(4-trifluoromethyl-benzyl)-heptanoylamino]-hex-2-enoic acid ethyl ester]: the results for the EC50 in assay [1] and in assay [4] were 50 nM and 160 nM, respectively.
Take `CCOC(=O)/C=C/[C@H](CCC(N)=O)NC(=O)[C@@H](CC(=O)[C@H](CC(C)C)NC(=O)SC1CCCC1)Cc1ccc(C)cc1` [(E)-(S)-6-Carbamoyl-4-[(2R,5S)-5-cyclopentylsulfanylcarbonylamino-7-methyl-2-(4-methyl-benzyl)-4-oxo-octanoylamino]-hex-2-enoic acid ethyl ester]: the 50% effective concentration (EC50) is 560 nM in assay [5], 1000 nM in assay [3] and 1400 nM in assay [4].
